Source: patent US20110319384A1, “Pharmaceutical Compositions” (priority 2005, published 2011)
Read-outs that look alike come from different tables or passages of the source.

Tests used:
[1] = system: non-depressed patients with GAD; conditions: for change from baseline in HAM-A total score, observed case analysis: significant
patients with GAD [2] = conditions: hypothesis to be tested
patients with GAD [3] = system: patients with GAD
[4] = system: patients with treatment resistant or non-remitted GAD
[5] = system: patients with residual anxiety and depression despite SSRI treatment; conditions: added to stable SSRI
[6] = hypothesis to be tested, compared to paroxetine
[7] = hypothesis to be tested, vs placebo
[8] = adjunct to conventional therapy
[9] = adjunct to conventional therapy, mean dose 386 mg/day

AIMS, SAS, or BARS scores versus placebo ([1]; in vivo): no statistically significant differences
Sexual dysfunction: change from randomization in CSFQ total score at Day 57 (patients with GAD [3]; [6]): lower levels of sexual
Sexual dysfunction: change from randomization in CSFQ total score at Day 57 (patients with GAD [3]; [7]): placebo levels of sexual
mean total weight gain and BMI ([4]; baseline to Week 12): slight increases
SMILES: OCCOCCN1CCN(C2=Nc3ccccc3Sc3ccccc32)CC1 [quetiapine, 11-[4-[2-(2-hydroxyethoxy)ethyl]-1-piperazinyl]-dibenzo[b,f][1,4]thiazepine]
reduction in HAM-A psychic anxiety subscale, observed cases ([1]; Week 2, placebo −3.0): −6.6
change from baseline in HAM-A total score, observed case analysis ([1]; Week 2, placebo −5.9): −11.1
reduction in HAM-A psychic anxiety subscale, observed cases ([1]; Week 4, placebo −4.0): −7.8
change from baseline in HAM-A total score, observed case analysis ([1]; Week 4, placebo −8.6): −13.7
mean decrease from baseline in HAM-A total score ([1]; baseline to week 6, ITT, LOCF, placebo about 9, difference not significant, mean dose 125 mg/day): about 12
tolerability ([1]; in vivo): generally well tolerated
patients who discontinued treatment because of AEs ([1]; of 19 in the group): Five
remission rate at endpoint (HAM-A total score ≦7) ([1]; placebo 21.1%, not statistically significant): 42.1%
response rate at endpoint (≧50% reduction in HAM-A total score) ([1]; placebo 36.8%, not statistically significant): 57.9%
reduction from baseline on the CGI-S ([1]; placebo −1.05): −1.37
reduction from baseline on the Hospital Anxiety and Depression (HAD) anxiety subscale ([1]; placebo −3.16): −3.79
reduction from baseline on the HAM-A somatic subscale ([1]; placebo −4.4): −5.2
Somnolence: severity of AEs, time of first instance, withdrawals due to AE of somnolence (patients with GAD [2]; compared to placebo): generally mild, occurs early in
Change from randomization in MADRS total score at Day 57 (patients with GAD [2]; depressive symptoms in GAD, vs placebo): Quetiapine is more effective
Adverse events related to discontinuation; change in Discontinuation-Emergent Signs and Symptoms total score at Day 64 and Day 71 (patients with GAD [2]; discontinuation symptoms): Quetiapine does not have
Change from normal to Clinically Important in Physical Examinations; Laboratory values; Vital signs; ECGs (patients with GAD [2]; once daily up to 300 mg/day): 300 mg/day is safe and well
Change from randomization in Q-les-Q Item 15 (Satisfaction with medication) at Day 57 (patients with GAD [2]; patient satisfaction, vs placebo): Quetiapine is more effective
Change from randomization in HAM-A total score, HAM-A psychic cluster, HAM-A somatic cluster and CGI-S score at Day 8 (patients with GAD [2]; patients with GAD, Day 8): anti-anxiety effect by Day 8
Change from randomization in Q-les-Q total score and Q-les-Q Item 16 (Overall life satisfaction) at Day 57 (patients with GAD [2]; quality of life, vs placebo): Quetiapine is more effective
HAM-A Response (decrease from randomization total score of ≧50%) at Day 8 (patients with GAD [2]; response rate vs placebo, Day 8): Quetiapine has a greater
HAM-A Response (decrease from randomization total score of ≧50%) at Day 57 (patients with GAD [2]; response rate vs placebo, Day 57): Quetiapine has a greater
Adverse events of nausea or vomiting (patients with GAD [2]; vs placebo): placebo levels of nausea and
Adverse events related to EPS (including akathisia); change in SAS and BARS scores at Day 57 (patients with GAD [2]; vs placebo): placebo levels of EPS
HAM-A Remission (HAM-A total score ≦7) at Day 57 (patients with GAD [2]; vs placebo, Day 57): Quetiapine is better than
Change from randomization in CGI-S score, CGI-I (much or very much improved), HAM-A psychic cluster and HAMA somatic cluster at Day 57 (patients with GAD [2]; vs placebo, across anxiety symptoms, Day 57): Quetiapine is more effective
Change from randomization in the Hamilton Anxiety Scale (HAM-A) total score at Day 57 (patients with GAD [3]; claim to be addressed, primary outcome, vs placebo): more effective
Adverse events of nausea or vomiting (patients with GAD [3]; [6]): lower levels of nausea and
Incidence of withdrawals due to adverse events (patients with GAD [3]; [6]): Quetiapine has similar
Somnolence: severity of AEs, time of first instance, withdrawals due to AE of somnolence (patients with GAD [3]; hypothesis to be tested, compared to placebo): generally mild, occurs early in
Change from randomization in HAM-A total score, HAM-A psychic cluster, HAM-A somatic cluster and CGI-S score at Day 4 (patients with GAD [3]; hypothesis to be tested, compared to placebo, Day 4): anti-anxiety effect by Day 4
Change from randomization in MADRS total score at Day 57 (patients with GAD [3]; hypothesis to be tested, depressive symptoms in GAD, vs placebo): Quetiapine is more effective
Adverse events related to discontinuation; change in Discontinuation-Emergent Signs and Symptoms total score at Day 64 and Day 71 (patients with GAD [3]; hypothesis to be tested, discontinuation symptoms): Quetiapine does not have
Change from normal to Clinically Important in Physical Examinations; Laboratory values; Vital signs; ECGs (patients with GAD [3]; hypothesis to be tested, once daily up to 150 mg/day): 150 mg/day is safe and well
Change from randomization in Q-les-Q Item 15 (Satisfaction with medication) at Day 57 (patients with GAD [3]; hypothesis to be tested, patient satisfaction, vs placebo): Quetiapine is more effective
Change from randomization in Q-les-Q total score and Q-les-Q Item 16 (Overall life satisfaction) at Day 57 (patients with GAD [3]; hypothesis to be tested, quality of life, vs placebo): Quetiapine is more effective
HAM-A Response (decrease from randomization total score of ≧50%) at Day 4 (patients with GAD [3]; hypothesis to be tested, response rate vs placebo, Day 4): Quetiapine has a greater
HAM-A Response (decrease from randomization total score of ≧50%) at Day 57 (patients with GAD [3]; hypothesis to be tested, response rate vs placebo, Day 57): Quetiapine has a greater
Change from randomization in PSQI score and MADRS sleep disturbance factor (Item 4) at Day 57 (patients with GAD [3]; hypothesis to be tested, sleep quality, vs placebo): Quetiapine is superior to
Change from randomization in HAM-A total score, CGI Global Improvement, HAM-A psychic and somatic clusters at Day 57 (patients with GAD [3]; hypothesis to be tested, versus paroxetine): Quetiapine is at least as
Adverse events of nausea or vomiting (patients with GAD [3]; [7]): placebo levels of nausea and
Adverse events related to EPS (including akathisia); change in SAS and BARS scores at Day 57 (patients with GAD [3]; [7]): placebo levels of EPS
HAM-A Remission (HAM-A total score ≦7) at Day 57 (patients with GAD [3]; [7]): Quetiapine is better than
Change from randomization in CGI-S score, CGI-I (much or very much improved), HAM-A psychic and somatic clusters at Day 57 (patients with GAD [3]; hypothesis to be tested, vs placebo, across anxiety symptoms): Quetiapine is more effective
Dysfunctional Beliefs and Attitudes about Sleep Scale (DBAS) mean at Week 12 [4, 8]: about 73
Dysfunctional Beliefs and Attitudes about Sleep Scale (DBAS) mean at baseline [4, 8]: about 88
PSQI (sleep quality) baseline mean [4, 8]: about 17
PSQI (sleep quality) mean in Week 12 [4, 8]: about 7
Penn State Worry Questionnaire (PSWQ) mean at Week 12 [4, 8]: about 44
Penn State Worry Questionnaire (PSWQ) mean at baseline [4, 8]: about 53
mean HAM-A total score after 12 weeks of treatment [4, 9]: about 9
mean HAM-A total score at baseline [4, 9]: about 30
improvement in mean Sheehan Disability Inventory (SDI) scores (work, family, social interactions) ([4]; baseline to Week 12): about 2
patients who entered the study reporting sedation as an adverse event ([4]; in vivo): Forty
serious adverse events ([4]; in vivo): no serious adverse events were reported
vital signs or laboratory assessments ([4]; in vivo): no clinically significant changes
patients who withdrew due to adverse events ([4]; of 50 patients eligible for inclusion): seven
patients who withdrew because of sedation ([4]; of the patients withdrawn for adverse events): five
mean HAM-A score after 9 weeks of treatment [5]: about 6
mean HAM-A score at baseline [5]: about 25
